Experimental data published in patent publication US5455044A, “Method for treating neurological disorders” (priority 1993, dated 1995).

Test: Effect of concurrent oral dexamethasone administration on DTC 101 toxicity

C[C@@H]1C[C@H]2[C@@H]3CCC4=CC(=O)C=C[C@]4(C)[C@@]3(F)[C@@H](O)C[C@]2(C)[C@@]1(O)C(=O)CO [dexamethasone]
effect on toxicities associated with DTC 101 (oral, 2 to 4 mg twice per day): major effect on blunting toxicities associated with DTC 101
DTC 101 toxicity with concurrent oral dexamethasone (three patients, same dose of DTC 101 with and without dexamethasone): almost completely suppressed
